From US11420956B2, “Ureas having Androgen Receptor degradation activity and uses thereof” (ACCUTAR BIOTECHNOLOGY INC., priority 2019, dated 2022)
Substitutions are numbered along the chain they refer to.

Experiments:
Format in all cases: cell-based
Conditions in all cases: 24 hours after administration
androgen receptor (AR) [1] = assay: AR degradation in 22Rv1 cells (Western blot)
Experimental: (§1) LNCAP, VCAP and 22Rv1 cells were plated in 24-well plates at 1.5×10E5 cells/well in the RPMI growth medium containing 10% FBS and 1% Penicillin Streptomycin, and then incubated at 37° C. overnight. The following day, the test compound was administered to the cells by using 1000× compound stock solution prepared in DMSO at various concentrations. After administration of the compound, the cells were then incubated at 37° C. for 24 hours. Upon completion, the cells were washed with PBS and protein was collected in Laemmli sample buffer (1×; VWR International). Proteins in cell lysate were separated by SDS-PAGE and transferred to Odyssey nitrocellulose membranes (Licor) with iblot® dry blotting transfer system (ThermoFisher). Nonspecific binding was blocked by incubating membranes with Intercept Blocking Buffer (Licor) for 1 hour at room temperature with gentle shaking. The membranes were then incubated overnight at 4° C. with Primary antibodies rabbit anti-AR (1:1,000, Cell Signaling, 5153) and mouse anti-GAPDH (1:5,000, Santa Cruz Biotechnology, sc-47724) diluted in Intercept Blocking Buffer containing 0.1% Tween 20. After washing 3 times with TBS-T, the membranes were incubated with IRDye® […] goat anti-mouse IgG (1:20,000, Licor) or IRDye® […] goat anti-rabbit IgG (1:20,000, Licor) for 1 hour. After TBS-T washes, membranes were rinsed in TBS and scanned on Odyssey® CLx Imaging System (Licor). The bands were quantified using Image Studio™ Software (Licor).
(§2) Tables 5 and 6 summarize the androgen receptor (AR) degradative activity of exemplary compounds in LNCAP, VCAP and 22Rv1 cell lines 24 hours after administration. DC50: compound concentration needed for 50% target protein degradation.

androgen receptor (AR) [2] = biological target: T1, androgen receptor (AR) (Homo sapiens, UniProt P10275, T878A); assay: AR degradation in LNCAP cells (Western blot)
T1 construct: endogenous in cells; host or cells: LNCAP
T1 sequence (P10275 1-920 T878A): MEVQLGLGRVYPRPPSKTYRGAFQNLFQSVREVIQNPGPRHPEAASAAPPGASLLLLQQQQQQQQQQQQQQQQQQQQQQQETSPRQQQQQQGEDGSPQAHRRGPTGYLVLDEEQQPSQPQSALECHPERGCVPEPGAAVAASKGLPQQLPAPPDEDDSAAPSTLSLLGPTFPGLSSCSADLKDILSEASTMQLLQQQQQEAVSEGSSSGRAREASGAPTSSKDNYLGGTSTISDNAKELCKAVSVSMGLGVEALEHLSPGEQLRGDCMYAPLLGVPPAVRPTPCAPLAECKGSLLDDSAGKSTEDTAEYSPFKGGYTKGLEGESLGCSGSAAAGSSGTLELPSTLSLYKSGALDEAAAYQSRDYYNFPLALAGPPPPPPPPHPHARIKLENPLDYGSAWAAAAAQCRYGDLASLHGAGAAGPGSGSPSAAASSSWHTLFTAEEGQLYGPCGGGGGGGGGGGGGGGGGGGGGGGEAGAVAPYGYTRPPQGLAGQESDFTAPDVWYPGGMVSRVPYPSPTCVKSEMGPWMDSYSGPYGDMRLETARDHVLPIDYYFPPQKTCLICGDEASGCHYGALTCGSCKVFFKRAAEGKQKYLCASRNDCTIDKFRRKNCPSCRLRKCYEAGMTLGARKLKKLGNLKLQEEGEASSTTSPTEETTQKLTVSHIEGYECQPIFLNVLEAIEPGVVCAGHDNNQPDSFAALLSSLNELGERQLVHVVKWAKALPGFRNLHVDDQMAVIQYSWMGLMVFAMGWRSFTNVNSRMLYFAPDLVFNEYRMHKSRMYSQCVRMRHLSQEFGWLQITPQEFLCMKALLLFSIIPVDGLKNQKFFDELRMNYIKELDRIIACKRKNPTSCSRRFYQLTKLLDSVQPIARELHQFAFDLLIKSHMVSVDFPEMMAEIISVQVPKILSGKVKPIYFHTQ
How it was run: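 Cells plated in RPMI with 10% FBS overnight, then treated with compound at various concentrations (from 1000× DMSO stocks) for 24 h at 37 °C. AR level measured by Western blot with GAPDH as loading control, infrared-fluorescent detection and band quantification; DC50 is concentration giving 50% AR degradation.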

androgen receptor (AR) [3] = biological target: T2, androgen receptor (AR) (Homo sapiens, UniProt P10275); assay: AR degradation in VCAP cells (Western blot)
T2 construct: endogenous in cells; host or cells: VCAP
T2 sequence (P10275 1-920): T1 sequence (P10275 1-920 T878A) with A878T
Experimental: as §1, §2

| Molecule | DC50 (androgen receptor (AR) [1]) | DC50 (androgen receptor (AR) [2]) | DC50 (androgen receptor (AR) [3]) |
| --- | --- | --- | --- |
| (2R,5S)-4-(4-cyano-3-methoxyphenyl)-N-(4-(4-((4-(2-((S)-2,6-dioxopiperidin-3-yl)-1-oxoisoindolin-5-yl)piperazin-1-yl)methyl)piperidin-1-yl)-3-fluorophenyl)-2,5-dimethylpiperazine-1-carboxamide [Compound 1-53] | ≤ 0.01 µM | ≤ 0.01 µM | ≤ 0.01 µM |
| C[C@@H]1CN(c2ccc(C#N)c(Cl)c2)[C@@H](C)CN1C(=O)Nc1cnc(N2CCC(CN3CCN(c4ccc5c(c4)C(=O)N(C4CCC(=O)NC4=O)C5=O)CC3)CC2)nc1 (stereo partly drawn) [Compound 1-20, (2R,5S)-4-(3-chloro-4-cyanophenyl)-N-(2-(4-((4-(2-(2,6-dioxopiperidin-3-yl)-1,3-dioxoisoindolin-5-yl)piperazin-1-yl)methyl)piperidin-1-yl)pyrimidin-5-yl)-2,5-dimethylpiperazine-1-carboxamide] | ≤ 0.01 µM | ≤ 0.01 µM | – |
| C[C@@H]1CN(c2ccc(C#N)c(C(F)(F)F)c2)[C@@H](C)CN1C(=O)Nc1ccc(N2CCC(CN3CCN(c4ccc5c(c4)CN([C@H]4CCC(=O)NC4=O)C5=O)CC3)CC2)nc1 [Compound 1-43, (2R,5S)-4-(4-cyano-3-(trifluoromethyl)phenyl)-N-(6-(4-((4-(2-((S)-2,6-dioxopiperidin-3-yl)-1-oxoisoindolin-5-yl)piperazin-1-yl)methyl)piperidin-1-yl)pyridin-3-yl)-2,5-dimethylpiperazine-1-carboxamide] | ≤ 0.01 µM | ≤ 0.01 µM | ≤ 0.01 µM |
